Assay results taken from patent EP4813381A1, “PHARMACEUTICAL USE OF GUAIANE SESQUITERPENE DERIVATIVE” (Nanjing University Of Chinese Medicine, priority 2023, dated 2025).

Legend:
[1] = test system: Rat mast cells (RBL-2H3); assay: Mast cell degranulation test (anti-DNP IgE / DNP-HSA); assay type: cell-based; details: RBL-2H3, IgE+HSA, 4 h
Protocol: Rat mast cells (RBL-2H3) were cultured routinely in DMEM medium containing 10% FBS within a 5% CO2 incubator. Upon reaching 70-80% confluence, cells were uniformly seeded at a density of 1 × 10^5 cells/mL into 6-well plates (2 mL per well), divided into the following groups: Normal, IgE+HSA, Compound 1 (0.01, 0.1, 1, 10 µM). Mast cells were sensitized with 500 µg/L anti-DNP IgE for 12 h. washed with PBS, and cultured for an additional 12 h with 100 µg/L DNP-HSA. Compound 1 at the specified concentrations was then added. […]

[2] = test system: CCR2 mRNA; assay: CCR2 mRNA level in MDSCs (PCR); assay type: cell-based, mice; details: CCR2 mRNA levels in MDSCs, 2 h
Protocol: Mice were euthanized by cervical dislocation and immersed in 75% ethanol solution for 5 min. Under sterile conditions, the tibia was removed, both ends of the bone were cut, and bone marrow was repeatedly flushed into a 15 mL centrifuge tube using a 1 mL syringe filled with culture medium. Centrifuge at 1600 rpm for 5 min to collect bone marrow cells. Wash twice with 1×PBS, then resuspend in RPMI 1640 complete medium containing GM-CSF (10 ng/mL) + IL-4 (10 ng/mL) and transfer to a cell culture dish to stimulate differentiation of bone marrow cells into MDSCs. Count cells and adjust density to 1 × 10^6 cells/mL in complete medium. Seed cells uniformly into 6-well plates at 2 mL per well. […] After incubation, collect cells into centrifuge tubes, centrifuge at 1600 rpm for 5 min, wash once with 1×PBS, and add 500 µL RNA extraction reagent to each tube. After centrifugation to obtain the pellet, add 20 µL DEPC-treated water to each tube to dissolve the pellet. Determine RNA concentration and reverse transcribe to cDNA. Add the cDNA, primers, and reverse transcriptase to a 96-well plate. Centrifuge at 4000 rpm for 5 min, then place in a PCR instrument for detection.

[3] = test system: CCl4-induced liver injury; assay: CCl4 acute liver injury model in mice: serum ALT and AST; assay type: in vivo, C57BL/6 mice; details: 3 days (method: U/L)
Description: The drug of the present invention, prepared according to Example 2; Silybin, Shanghai Yuanye Biotechnology Co., Ltd.; Olive oil, Beijing […] Olive Oil Development Center; Analytical grade carbon tetrachloride (CCl4), Shantou Xilong Chemical Factory; Sodium carboxymethyl cellulose (CMC-Na), Guangdong Shantou Xilong Chemical Factory; RNA Isolater Total RNA Extraction Reagent, […] RT Supermix for qPCR, Nanjing Vazyme Biotech Co., Ltd.; AceQ qPCR SYBR Green Master Mix, Shanghai Yeasen Biotechnology Co., Ltd.; Aspartate Transaminase (AST/GOT) Colorimetric Test Kit, Alanine Transaminase (ALT/GPT) Colorimetric Test Kit, Wuhan Elabscience Biotechnology Co., Ltd. • Experimental animals: […] SCXK(Su)2019-002. […] They were acclimated for 7 days before use in experiments. • Experimental Methods: Establishment of Acute Liver Injury Model in Mice and Group-Specific Drug Administration • Mice were randomly assigned to groups. […] One hour after the final drug administration, blood was collected from the retinal venous plexus. […] Serum was aspirated, aliquoted, and stored at -70 °C for future use. After blood collection, euthanize mice by cervical dislocation. Perform laparotomy to remove the liver. Rinse twice with pre-chilled PBS. Excise the left hepatic lobe tissue. […] Store remaining tissue at -70 °C for future use. • Serum AST and ALT Assay: Use 10 μL of each sample for testing. Determine mouse serum AST and ALT levels according to the operating manual. Measure absorbance at 510 nm using an enzyme-linked immunosorbent assay (ELISA) reader. Calculate sample concentration (U/L) based on the standard curve. Data Statistics: All data are expressed as means ± standard error of the mean (S.E.M.). Differences were analyzed for significance using analysis of variance (ANOVA). For groups showing significant differences in ANOVA, one-way ANOVA followed by Dunnett's test was performed to compare intergroup differences.

[4] = test system: MC903-induced atopic dermatitis (AD); assay: MC903-induced ear atopic dermatitis mouse model, oral Compound 20: dermatitis score, ear thickness, serum IgE; details: for IgE: serum, AD mice

C=C1C(=O)O[C@@H]2[C@@H]3[C@]4(CC[C@@]3(C)O)C[C@]4(C)CC[C@@H]12 [compound 1]
β-Glucosaminidase ([1]; 0.01 µM): 13.24 ± 0.08 ng/mL | β-Glucosaminidase ([1]; 0.1 µM): 12.08 ± 0.12 ng/mL | β-Glucosaminidase ([1]; 1 µM): 10.65 ± 0.05 ng/mL | β-Glucosaminidase ([1]; 10 µM): 7.13 ± 0.07 ng/mL | CCR2 mRNA suppression rate in MDSCs (%) ([2]; 1 µM): 35.2% | CCR2 mRNA suppression rate in MDSCs (%) ([2]; 10 µM): 76.5% | ALT ([3]; oral 0.1 mg/kg): 173.58 ± 22.75 | AST ([3]; oral 0.1 mg/kg): 424.52 ± 175.34 | ALT ([3]; oral 1 mg/kg): 104.22 ± 5.21 | AST ([3]; oral 1 mg/kg): 237.16±36.70

CN(C)C[C@@H]1C(=O)O[C@H]2[C@H]1CC[C@@]1(C)C[C@]13CC[C@@](C)(O)[C@H]23 [compound 20]
atopic dermatitis score ([4]; oral 0.1 mg/kg, Day 1): 0.00±0.00 | ear thickness ([4]; oral 0.1 mg/kg, Day 1): 0.20±0.00 mm | atopic dermatitis score ([4]; oral 0.1 mg/kg, Day 3): 0.67±0.21 | ear thickness ([4]; oral 0.1 mg/kg, Day 3): 0.24±0.00 mm | atopic dermatitis score ([4]; oral 0.1 mg/kg, Day 5): 1.33±0.21 | ear thickness ([4]; oral 0.1 mg/kg, Day 5): 0.26±0.00 mm | atopic dermatitis score ([4]; oral 0.1 mg/kg, Day 7): 2.17±0.17 | ear thickness ([4]; oral 0.1 mg/kg, Day 7): 0.26±0.00 mm | atopic dermatitis score ([4]; oral 0.1 mg/kg, Day 8): 2.50±0.22 | ear thickness ([4]; oral 0.1 mg/kg, Day 8): 0.27±0.00 mm | atopic dermatitis score ([4]; oral 0.1 mg/kg, Day 9): 3.00±0.26 | ear thickness ([4]; oral 0.1 mg/kg, Day 9): 0.28±0.00 mm | atopic dermatitis score ([4]; oral 0.1 mg/kg, Day 10): 3.50±0.22 | ear thickness ([4]; oral 0.1 mg/kg, Day 10): 0.29±0.00 mm | atopic dermatitis score ([4]; oral 0.1 mg/kg, Day 11): 3.67±0.21 | ear thickness ([4]; oral 0.1 mg/kg, Day 11): 0.30±0.00 mm | atopic dermatitis score ([4]; oral 0.1 mg/kg, Day 12): 3.33±0.21 | ear thickness ([4]; oral 0.1 mg/kg, Day 12): 0.30±0.00 mm | atopic dermatitis score ([4]; oral 0.1 mg/kg, Day 13): 3.00±0.00 | ear thickness ([4]; oral 0.1 mg/kg, Day 13): 0.30±0.00 mm | atopic dermatitis score ([4]; oral 0.1 mg/kg, Day 14): 2.67±0.21 | ear thickness ([4]; oral 0.1 mg/kg, Day 14): 0.29±0.00 mm | atopic dermatitis score ([4]; oral 1 mg/kg, Day 1): 0.00±0.00 | ear thickness ([4]; oral 1 mg/kg, Day 1): 0.20±0.00 mm | atopic dermatitis score ([4]; oral 1 mg/kg, Day 3): 0.50±0.22 | ear thickness ([4]; oral 1 mg/kg, Day 3): 0.23±0.00 mm | atopic dermatitis score ([4]; oral 1 mg/kg, Day 5): 1.17±0.17 | ear thickness ([4]; oral 1 mg/kg, Day 5): 0.24±0.00 mm | atopic dermatitis score ([4]; oral 1 mg/kg, Day 7): 1.67±0.21 | ear thickness ([4]; oral 1 mg/kg, Day 7): 0.26±0.00 mm | atopic dermatitis score ([4]; oral 1 mg/kg, Day 8): 2.17±0.17 | ear thickness ([4]; oral 1 mg/kg, Day 8): 0.27±0.00 mm | atopic dermatitis score ([4]; oral 1 mg/kg, Day 9): 2.83±0.17 | ear thickness ([4]; oral 1 mg/kg, Day 9): 0.28±0.00 mm | atopic dermatitis score ([4]; oral 1 mg/kg, Day 10): 3.00±0.00 | ear thickness ([4]; oral 1 mg/kg, Day 10): 0.28±0.00 mm | atopic dermatitis score ([4]; oral 1 mg/kg, Day 11): 3.17±0.17 | ear thickness ([4]; oral 1 mg/kg, Day 11): 0.28±0.00 mm | atopic dermatitis score ([4]; oral 1 mg/kg, Day 12): 2.67±0.21 | ear thickness ([4]; oral 1 mg/kg, Day 12): 0.27±0.00 mm | atopic dermatitis score ([4]; oral 1 mg/kg, Day 13): 2.50±0.22 | ear thickness ([4]; oral 1 mg/kg, Day 13): 0.27±0.00 mm | atopic dermatitis score ([4]; oral 1 mg/kg, Day 14): 2.00±0.00 | ear thickness ([4]; oral 1 mg/kg, Day 14): 0.27±0.00 mm | atopic dermatitis score ([4]; oral 10 mg/kg, Day 1): 0.00±0.00 | ear thickness ([4]; oral 10 mg/kg, Day 1): 0.20±0.00 mm | atopic dermatitis score ([4]; oral 10 mg/kg, Day 3): 0.67±0.21 | ear thickness ([4]; oral 10 mg/kg, Day 3): 0.23±0.00 mm | atopic dermatitis score ([4]; oral 10 mg/kg, Day 5): 1.00±0.00 | ear thickness ([4]; oral 10 mg/kg, Day 5): 0.25±0.00 mm | atopic dermatitis score ([4]; oral 10 mg/kg, Day 7): 2.00±0.00 | ear thickness ([4]; oral 10 mg/kg, Day 7): 0.26±0.00 mm | atopic dermatitis score ([4]; oral 10 mg/kg, Day 8): 2.50±0.22 | ear thickness ([4]; oral 10 mg/kg, Day 8): 0.27±0.00 mm | atopic dermatitis score ([4]; oral 10 mg/kg, Day 9): 2.83±0.17 | ear thickness ([4]; oral 10 mg/kg, Day 9): 0.27±0.00 mm | atopic dermatitis score ([4]; oral 10 mg/kg, Day 10): 2.67±0.42 | ear thickness ([4]; oral 10 mg/kg, Day 10): 0.27±0.00 mm | atopic dermatitis score ([4]; oral 10 mg/kg, Day 11): 3.00±0.26 | ear thickness ([4]; oral 10 mg/kg, Day 11): 0.27±0.00 mm | atopic dermatitis score ([4]; oral 10 mg/kg, Day 12): 2.33±0.33 | ear thickness ([4]; oral 10 mg/kg, Day 12): 0.25±0.00 mm | atopic dermatitis score ([4]; oral 10 mg/kg, Day 13): 1.67±0.21 | ear thickness ([4]; oral 10 mg/kg, Day 13): 0.25±0.00 mm | atopic dermatitis score ([4]; oral 10 mg/kg, Day 14): 1.50±0.22 | ear thickness ([4]; oral 10 mg/kg, Day 14): 0.24±0.01 mm | IgE ([4]; oral 0.1 mg/kg): 239.26 ± 48.93 ng/mL | IgE ([4]; oral 1 mg/kg): 167.90 ± 21.03 ng/mL | IgE ([4]; oral 10 mg/kg): 145.68 ± 23.19 ng/mL
